The text below walks through data of patent US20250223306A1, “TEAD INHIBITORS AND METHODS OF USE” (Sporos BioDiscovery, Inc., priority 2022, published 2025).

Where only a bound is given, the exact number is not on record here.

A word on the EC50: it is the midpoint of the concentration-response curve. The term T/C denotes the ratio of treated to control. The TGI is the reduction of tumour growth relative to the control group. The low end stands for little slowing of growth, the high end for much slowing of growth.

The target in assay [1] is TEAD3 (Homo sapiens, UniProt Q99594). Nature of the assay: TEAD thermal shift assay (TSA). Type of assay: binding. From the text:
(§1) Thermal shift assay (TSA) is a biophysical method to evaluate stability of proteins with change in temperature. The assay measures thermal denaturation temperature in varying conditions such as different drug concentration. For this example, fluorogenic dye was used that bind to unfolded proteins. SYPRO Orange binds non-specifically to hydrophobic surfaces, and water strongly quenches its fluorescence. When the protein unfolds, the exposed hydrophobic surfaces bind the dye, resulting in an increase in fluorescence by excluding water. Detergent micelles also bind the dye and increase background noise dramatically. Binding of small molecules to proteins leads to a stabilization against to thermal denaturation with the degree of thermal stabilization proportional to the strength of binding.
(§2) The study described in this example investigated the change in melting temperature (ΔTm) of TEAD isoforms 1˜4 when treated with TEAD inhibitors. Compound 1-1-a known strong TEAD1 and weak TEAD2 inhibitor; as well as Compound 1-4-a pan-TEAD inhibitor were used as controls.
(§3) Tris-HCL was dissolved in 5 mL of Cell culture grade water and allowed to dissolve completely. The pH was adjusted to 8 using NaOH. Additional assay buffer components were added in the order listed above. The buffer was mixed slowly.
(§4) Assay buffer was prepared according to the procedures outlined above and dispensed into test wells. Spyro orange was added to a concentration of 5× in the assay buffer, followed by test compound stock solution which was added to a concentration of 10 μM or 30 μM in the assay buffer.
(§5) The melt cycle was performed in Bio-RAD PCR instrument from 20-95° C. with ramp rate of 1° C./min.

Assay [2] concerns the target TEAD1 (Homo sapiens, UniProt P28347). Nature of the assay: TEAD thermal shift assay (TSA). Type of assay: binding.
Description: as §1, §2, §3, §4, §5

In assay [3] the target is TEAD4 (Homo sapiens, UniProt Q15561). Kind of assay: TEAD thermal shift assay (TSA). Type of assay: binding.
Chain of TEAD4 (Q15561 whole entry): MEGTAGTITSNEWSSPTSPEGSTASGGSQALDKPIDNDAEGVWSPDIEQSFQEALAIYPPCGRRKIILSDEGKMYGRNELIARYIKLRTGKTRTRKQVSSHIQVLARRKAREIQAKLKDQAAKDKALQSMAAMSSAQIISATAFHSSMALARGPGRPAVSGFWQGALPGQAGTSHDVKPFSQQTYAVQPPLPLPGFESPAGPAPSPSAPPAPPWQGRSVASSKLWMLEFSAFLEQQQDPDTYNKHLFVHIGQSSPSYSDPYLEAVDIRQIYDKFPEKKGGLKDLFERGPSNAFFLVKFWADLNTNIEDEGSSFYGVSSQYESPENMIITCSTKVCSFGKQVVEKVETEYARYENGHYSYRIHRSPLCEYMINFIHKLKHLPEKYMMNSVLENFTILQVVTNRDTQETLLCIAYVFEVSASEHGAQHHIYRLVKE
Description: as §1, §2, §3, §4, §5

Assay [4] addresses TEAD2 (Homo sapiens, UniProt Q15562). Nature of the assay: TEAD thermal shift assay (TSA). It is filed as binding.
Description: as §1, §2, §3, §4, §5

Assay [5] deals with LOU-NH91 cells. Nature of the assay: LOU-NH91 proliferation and cell viability assay (CTG). Type of assay: cell-based. To be noted: LOU-NH91 cell line, 216 hours. Here is the method:
LOU-NH91 cells were trypsinised, counted and plated at the specified cell density in 200 μl of growth media in 96 well flat bottom tissue culture treated plates. The plated cells were incubated overnight at 37° C., 5% CO2 before being treated with compounds in triplicate for each assay point. 50 μl of the serially diluted compound was added to each well giving a final DMSO concentration of 0.5% per well and a total volume of 250 μl per well. The treated cells were incubated for 216 hours (9 days) at 37° C., 5% CO2. Following compound treatment, the remaining viable cells were detected using the Promega CellTiter-Glo 2.0 assay as follows: 150 μl of media was removed from each of the wells to be assayed and 100 μl of room temperature CellTiter-Glo 2.0 reagent was added. The plate was placed on an orbital shaker at 500 rpm at room temperature for 2 minutes, and then incubated without shaking for a further 10 minutes at room temperature. 150 μl of cell lysate was removed from each well and dispensed into a single well of a white opaque 96 well plate. Luminescence at 545 nm was read using a BMG CLARIOstar plate reader. The luminescent signal was directly proportional to number of viable cells, the percent of viable cells relative to the DMSO control was then calculated for each assay point. Percent viability relative to DMSO control was plotted against compound concentration and a curve fitted with non-linear regression in GraphPad Prism software. EC50 and IC50 values were calculated using GraphPad Prism software as follows: For EC50 values a non-constrained four-parameter logistic curve fit was used (Sigmoidal, 4PL, X is concentration). For Absolute IC50 values the baseline was constrained to Y=0 (Absolute IC50, X is concentration). Area Under the Curve (AUC): Prism computes area-under-the-curve by the trapezoidal method. The analysis sees a fitted curve as simply a series of connected XY points. Prism simply computes the area under the “curve” defined by connecting the points by straight lines. The units of the AUC are the units of the Y axis times units of the X axis.

For assay [6], the system named is BHY cells. Kind of assay: BHY proliferation and cell viability assay (CTG). Type of assay: cell-based. The conditions noted are these: BHY cell line. Here is the method: BHY cells were trypsinised, counted and plated at the specified cell density in 200 μl of growth media in 96 well flat bottom tissue culture treated plates. The plated cells were incubated overnight at 37° C., 5% CO2 before being treated with compounds in triplicate for each assay point. 50 μl of the serially diluted compound was added to each well giving a final DMSO concentration of 0.5% per well and a total volume of 250 μl per well. The treated cells were incubated for 144 hours (6 days) at 37° C., 5% CO2. Following compound treatment, the remaining viable cells were detected using the Promega CellTiter-Glo 2.0 assay as follows: 150 μl of media was removed from each of the wells to be assayed and 100 μl of room temperature CellTiter-Glo 2.0 reagent was added. The plate was placed on an orbital shaker at 500 rpm at room temperature for 2 minutes, and then incubated without shaking for a further 10 minutes at room temperature. 150 μl of cell lysate was removed from each well and dispensed into a single well of a white opaque 96 well plate. Luminescence at 545 nm was read using a BMG CLARIOstar plate reader. The luminescent signal was directly proportional to number of viable cells, the percent of viable cells relative to the DMSO control was then calculated for each assay point. Percent viability relative to DMSO control was plotted against compound concentration and a curve fitted with non-linear regression in GraphPad
Prism software. EC50 and IC50 values are calculated using GraphPad Prism software as follows: For EC50 values, a non-constrained four-parameter logistic curve fit was used (Sigmoidal, 4PL, X is concentration). For Absolute IC50 values the baseline was constrained to Y=0 (Absolute IC50, X is concentration). Area Under the Curve (AUC): Prism computes area-under-the-curve by the trapezoidal method. The analysis sees a fitted curve as simply a series of connected XY points. Prism simply computes the area under the “curve” defined by connecting the points by straight lines. The units of the AUC are the units of the Y axis times units of the X axis.

Assay [7] deals with NCI-H226 xenograft. Nature of the assay: Inhibition of mouse xenograft NCI-H226 tumors. It is filed as in vivo, BALB/c nude mice. To be noted: Day 27; 3 mg/kg, p.o., QD. The source says:
This study evaluated the in vivo therapeutic efficacy of TEAD inhibitors in the treatment of the subcutaneous lung cancer NCI-H226 xenograft model in female BALB/c nude mice.
• ANOVA Analysis of variance • BW Body weight • BWL Body weight loss • FFPE Formalin fixed paraffin embedded • IACUC Institutional animal care and use committee • MTV Mean tumor volume • N/A Not available or not applicable • p.o. Oral (ly) • QD Once a day • REG REG=[(T0−Ti)/T0]×100%; • Ti as the mean tumor volume of the treatment group on the measurement day; • T0 as the mean tumor volume of the treatment group on Day 0. • ROA Route of administration • RT Room temperature • RTV Relative tumor volume • SD Standard deviation • SEM Standard error of mean • SOC Standard of care used in clinical setting for a specific disease • TBD To be determined • T/C The Ti/Ci value (%): T/C %=Ti/Ci×100; • Ti and Ci are the mean tumor volumes of the treatment and control groups, respectively, on a given day. • TGI Tumor growth inhibition; TGI %=(1−Ti/Ci)×100; • Ti and Ci are the mean tumor volumes of the treatment and control groups, respectively, on a given day. • TV Tumor volume • PK/PD Pharmacokinetics/Pharmacodynamics • ΔInhibition Mean % ΔInhibition=((Ci−C0)−(Ti−T0))/(Ci−C0)*100% • Ti and Ci are the mean tumor volumes of the treatment and control groups, respectively, on a given day. T0 and C0 as the mean tumor volumes of the treatment and vehicle groups on Day 0.
• Species Mus musculus • Strain Balb/c nude • Supplier GemPharmatech Co., Ltd • Gender Female • No. of Animals Ordered 68 (45 plus 23 spare) • No. of Animals Assigned 45 • to Study • Average Age of Animals 6-8 weeks • at Study Initiation
The NCI-H226 cells (CL-00364) cancer cells were maintained in vitro with RPMI1640 medium supplemented with 10% fetal bovine serum at 37° C. in an atmosphere of 5% CO2 in the air. The cells in exponential growth phase were harvested and quantitated by cell counter before tumor inoculation.
Each mouse was inoculated subcutaneously in the right front flank region with NCI-H226 tumor cells (1×10^7) in 0.2 ml of PBS mixed with Matrigel (1:1) for tumor development.
The randomization was performed when the mean tumor size reached 138.81 mm^3. 45 mice were enrolled in the study. All animals were randomly allocated to 9 study groups, 5 mice in each group. Randomization was performed based on “Matched distribution” method/“Stratified” method (StudyDirector™ software, version 3.1.399.19)/randomized block design. The date of randomization was denoted as day 0.
The treatment was initiated on the same day of randomization (day 0) per study design.
After tumor cells inoculation, the animals were checked daily for morbidity and mortality. During routine monitoring, the animals were checked for any effects of tumor growth and treatments on behavior such as mobility, food and water consumption, body weight gain/loss (Body weights were measured twice per week after randomization), eye/hair matting and any other abnormalities. Mortality and observed clinical signs were recorded for individual animals in detail.
Tumor volumes were measured twice per week after randomization in two dimensions using a caliper, and the volume was expressed in mm^3 using the formula: “V=(L×W×W)/2, where V is tumor volume, L is tumor length (the longest tumor dimension) and W is tumor width (the longest tumor dimension perpendicular to L). Dosing as well as tumor and body weight measurements were conducted in a Laminar Flow Cabinet.
To compare tumor volumes of different groups at a pre-specified day, Bartlett's test was first used to check the assumption of homogeneity of variance across all groups. When the p-value of Bartlett's test was >=0.05, one-way ANOVA was performed to test overall equality of means across all groups. […]

The subject of assay [8] is SDM103T2 cells. Nature of the assay: SDM103T2 proliferation and cell viability assay (CTG). It is filed as cell-based. The conditions noted are these: SDM103T2 cell line, 144 hours. How it is done: SDM103T2 cells were trypsinised, counted and plated at the specified cell density in 200 μl of growth media in 96 well flat bottom tissue culture treated plates. The plated cells were incubated overnight at 37° C., 5% CO2 before being treated with compounds in triplicate for each assay point. 50 μl of the serially diluted compound was added to each well giving a final DMSO concentration of 0.5% per well and a total volume of 250 μl per well. The treated cells were incubated for 144 hours (6 days) at 37° C., 5% CO2. Following compound treatment the remaining viable cells were detected using the Promega CellTiter-Glo 2.0 assay as follows: 150 μl of media was removed from each of the wells to be assayed and 100 μl of room temperature CellTiter-Glo 2.0 reagent was added. The plate was placed on an orbital shaker at 500 rpm at room temperature for 2 minutes, and then incubated without shaking for a further 10 minutes at room temperature. 150 μl of cell lysate was removed from each well and dispensed into a single well of a white opaque 96 well plate. Luminescence at 545 nm was read using a BMG CLARIOstar plate reader. The luminescent signal was directly proportional to number of viable cells, the percent of viable cells relative to the DMSO control was then calculated for each assay point. Percent viability relative to DMSO control was plotted against compound concentration and a curve fitted with non-linear regression in GraphPad Prism software. EC50 and IC50 values were calculated using GraphPad Prism software as follows: For EC50 values a non-constrained four-parameter logistic curve fit was used (Sigmoidal, 4PL, X is concentration). For Absolute IC50 values the baseline was constrained to Y=0 (Absolute IC50, X is concentration). Area Under the Curve (AUC): Prism computes area-under-the-curve by the trapezoidal method. The analysis sees a fitted curve as simply a series of connected XY points. Prism simply computes the area under the “curve” defined by connecting the points by straight lines. The units of the AUC are the units of the Y axis times units of the X axis.

[9] abbreviates: ratio of protein to compound 1:1.
Setting [10] is: ratio of protein to compound 1:3.

Chain of TEAD2 (Q15562 whole entry): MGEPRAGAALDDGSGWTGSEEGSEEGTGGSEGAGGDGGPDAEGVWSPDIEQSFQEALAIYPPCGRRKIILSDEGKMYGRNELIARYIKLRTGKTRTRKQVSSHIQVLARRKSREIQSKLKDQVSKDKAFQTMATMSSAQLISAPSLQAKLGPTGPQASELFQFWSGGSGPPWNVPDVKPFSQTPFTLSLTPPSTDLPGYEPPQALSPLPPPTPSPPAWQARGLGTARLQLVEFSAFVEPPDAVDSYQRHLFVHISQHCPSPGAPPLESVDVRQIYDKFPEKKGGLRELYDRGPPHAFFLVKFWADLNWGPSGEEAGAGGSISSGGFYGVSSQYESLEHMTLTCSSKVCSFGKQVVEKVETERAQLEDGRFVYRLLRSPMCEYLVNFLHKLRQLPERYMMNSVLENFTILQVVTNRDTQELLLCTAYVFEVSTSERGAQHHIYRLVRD
Chain of TEAD1 (P28347 whole entry): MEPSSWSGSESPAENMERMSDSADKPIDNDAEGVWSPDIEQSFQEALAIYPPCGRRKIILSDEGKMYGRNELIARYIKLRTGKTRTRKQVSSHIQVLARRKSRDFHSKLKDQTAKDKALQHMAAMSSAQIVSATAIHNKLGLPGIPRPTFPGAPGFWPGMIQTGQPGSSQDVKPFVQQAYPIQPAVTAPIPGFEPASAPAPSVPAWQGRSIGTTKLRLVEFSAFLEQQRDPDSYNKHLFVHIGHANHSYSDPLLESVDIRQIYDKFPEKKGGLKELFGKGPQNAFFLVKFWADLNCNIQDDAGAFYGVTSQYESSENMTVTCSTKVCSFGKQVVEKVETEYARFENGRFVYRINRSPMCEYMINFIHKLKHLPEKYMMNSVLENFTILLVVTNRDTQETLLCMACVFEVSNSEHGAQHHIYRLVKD
Chain of TEAD3 (Q99594 whole entry): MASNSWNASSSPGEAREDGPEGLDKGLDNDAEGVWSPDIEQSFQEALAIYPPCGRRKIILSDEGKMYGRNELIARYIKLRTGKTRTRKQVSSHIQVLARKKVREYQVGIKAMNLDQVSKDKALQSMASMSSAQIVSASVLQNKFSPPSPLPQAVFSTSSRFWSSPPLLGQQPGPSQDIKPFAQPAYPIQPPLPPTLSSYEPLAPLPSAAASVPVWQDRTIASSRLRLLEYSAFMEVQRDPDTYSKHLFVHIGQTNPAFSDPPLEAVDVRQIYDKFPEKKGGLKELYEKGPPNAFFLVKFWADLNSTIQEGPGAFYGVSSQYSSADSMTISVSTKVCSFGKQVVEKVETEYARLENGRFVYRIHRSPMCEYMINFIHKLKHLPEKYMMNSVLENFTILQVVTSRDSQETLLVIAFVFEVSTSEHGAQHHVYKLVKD

In the case of `C[C@H](CO)NC(=O)c1cnc2c(C3=CCC(C(F)(F)F)CC3)cccc2c1` (single isomer, unassigned) [Compound 81], the “TEAD3 ΔTm” value came to 4 °C in assay [1] (setting [9]) and 5 °C in assay [1] (setting [10]). The “TEAD1 ΔTm” value in assay [2] (setting [9]) was determined as 9 °C; in assay [2] (setting [10]), 10 °C. Besides, the “TEAD4 ΔTm” value was found to be 5 °C in assay [3] (setting [9]) and 7 °C in assay [3] (setting [10]). Besides, the “TEAD2 ΔTm” value in assay [4] (setting [9]) was 2 °C; in assay [4] (setting [10]), 3 °C. The concentration giving a half-maximal response (EC50) in assay [5] and in assay [6] (144 h) was < 200 nM each time.
With `C[C@H](CO)NC(=O)c1cnc2c(C3=CCC(C(F)(F)F)CC3)cccc2c1` (single isomer, unassigned) [Compound 82], the EC50 in assay [5] is < 200 nM; in assay [6] (144 hours), 200 to 1000 nM.
For the compound `COC[C@H](CO)NC(=O)c1cnc2c(C3=CCC(C(F)(F)F)CC3)cccc2c1` (single isomer, unassigned) [Compound 103], the concentration giving a half-maximal response (EC50) in assay [5] and in assay [6] (144 h) was < 200 nM in each case.
On to `COC[C@H](CO)NC(=O)c1cnc2c(C3=CCC(C(F)(F)F)CC3)cccc2c1` (single isomer, unassigned) [Compound 104], for which the EC50 in assay [5] and in assay [6] (144 hours) was < 200 nM each time.
Consider `CNS(=O)(=O)c1ccc(Nc2ccc(C(F)(F)F)cc2)c(-c2cn(C)cn2)c1` [Compound 1-1, reference compound], for which, in assay [7], the T/C amounted to 12.51%, the tumour growth inhibition (TGI) is 87.49% and the “Tumor Volume (mean ± SEM)” value is listed as 66.85 ± 12.17 mm^3. In addition, in assay [8], the EC50 was < 200 nM. Besides, in assay [1] (setting [9]), the “TEAD3 ΔTm” value stood at 0 °C. Moreover, the “TEAD1 ΔTm” value in assay [2] (setting [9]) worked out at 2 °C. For the same compound, the “TEAD1 ΔTm” value in assay [2] (setting [10]) amounted to 8 °C. Moreover, the “thermal shift / binding across TEAD isoforms, in words” value in assay [2] (summary of Table 14 over TEAD1-4) was “pronounced thermal shift only for TEAD1”. The “TEAD4 ΔTm” value in assay [3] (setting [9]) was found to be 0 °C. Also, in assay [3] (setting [10]), the “TEAD4 ΔTm” value amounted to 1 °C. Further, the “TEAD2 ΔTm” value in assay [4] (setting [9]) is 1 °C.
